Data on seven compounds can be found in patent publication US20210299260A1, “THERAPEUTIC CONJUGATES” (Ariel Scientific Innovations Ltd., priority 2018, published 2021).

For series [1] the following is noted: literature report; cited from earlier work.
A short description of a further series: physchem. The class given is physicochemical. Conditions: for half-life: buffer. The protocol: These studies were performed for Compound 1 at two pH values: 4.6 and 7.4, and compared to triazene drug dacarbazine (DTIC). These chosen pHs mimic relatively acidic cancer intracellular (pH 4.6) and slightly basic physiological (pH 7.4) environments.
(§1) The results for DTIC are consistent with the reported stability of the control drug in various hydrolytic media. In addition, Compound 1 decomposition has been studied by hepatic cytochrome P450 induction in hepatocellular carcinoma HepG2 cells using LC-MS (FIG. 1D). […] The decomposition of Compound 1 was examined in cell medium and in cell lysate, while the identification of metabolites was carried out solely in cell lysate.

The test system of series [2] is hepatocellular carcinoma HepG2 cells. Nature of the series: Decomposition and metabolite detection in HepG2 cells (medium versus cell lysate), LC-MS. In kind it is in vitro ADME. How it is done: as §1
It is assumed that this metabolite is the result of oxidation of Compound 1 by hepatic cytochrome P450 and subsequent degradation of two dimethyl triazene tethers in agreement with the mechanism of action of dacarbazine. The observed stability of Compound 1 in PBS potentiates its pharmacological utility during circulation in blood. Therefore, it is concluded that the stability of Compound 1 is sufficient for proceeding to animal models.

The subject of the next series is A172 GBM cells. Kind of series: Intracranial A172 GBM xenograft model in nude mice (weight, survival, histopathology). Conditions: for brain structure in brain sections / tumor area, tumor distribution and invasion in brain sections: H&E stained brain sections at termination; for brain structure in brain sections: FIG. 4; for brain structure in brain sections / tumor area, tumor distribution and invasion in brain sections / body weight gain of tumor-bearing mice / survival of tumor-bearing mice: Compound 1 50 mg/kg, TMZ 25 mg/kg; for body weight gain of tumor-bearing mice / survival of tumor-bearing mice: i.p. once daily, five injections; for body weight gain of tumor-bearing mice: FIG. 2; for survival of tumor-bearing mice: FIG. 3A; for tolerability to treatment: mice bearing GBM tumors, reflected by body weight and survival.

For series [3] the following is noted: pH 7.4; cited from earlier work.
Setting [4] is: listed as DKP-dimethyltriazene conjugate.

Method for A172 GBM cells: The efficacy of Compound 1 in inhibition of intracranial malignant brain glioblastoma growth and survival in nude mice was evaluated using nude mice that were implanted with 5×10^5 A172 GBM cells in the right striatum, followed by consequent once daily five intraperitoneal injections with the vehicle, TMZ (25 mg/kg) and Compound 1 (50 mg/kg), on the tenth day after glioblastoma implantation.
Mice brains were collected at termination day determined by appearance of severe clinical signs within tumor progression and invasion in brain tissue. Brains were fixed with 4% PFA, paraffin embedded and serially cut in to 5 μm. Three slides within a distance of 100 μm apart were sampled for each brain, and stained with hematoxyline-eosin dyes (H&E). Tumor area, distribution and invasion in to brain tissue were observed under light microscopy.

With `NCC(=O)CCC(=O)O` [5-aminolevulinic acid], in series [1], the BBB permeability result is on record as “did not show permeability”.

Turning to `CN(C)/N=N/c1ccc(C[C@H]2C(=O)N(C)[C@@H](Cc3ccc(/N=N/N(C)C)cc3)C(=O)N2C)cc1` [Compound 1, (3S,6S)-3,6-bis(4-((E)-3,3-dimethyltriaz-1-en-1-yl)benzyl)-1,4-dimethylpiperazine-2,5-dione], in the series “physchem” (pH 4.6), the half-life was 288 min. The “stability in PBS buffer” value in the series “physchem” (pH 7.4) is “sufficient stability”. For the same compound, in series [2] (HepG2, incubation in cell medium, FIG. 1C), the “decomposition in cell medium” value is “continuous decomposition”. The “accumulation/decomposition in cell lysate” value in series [2] (HepG2 cell lysate, FIG. 1C) is “gradually accumulated within an hour of incubation and decomposed subsequently”. In addition, the “main metabolite detected in cell lysate” value in series [2] (HepG2 cell lysate, LC-MS, FIG. 1D) was “containing monomethyl triazene (MTIC like) and aniline (AIC like) groups”. Further, in the series on A172 GBM cells, the “brain structure in brain sections” value is listed as “normal brain structure”; the “tumor area, tumor distribution and invasion in brain sections” value is reported as “noticeable reduction”; the “body weight gain of tumor-bearing mice” value is given as “normal weight gain”; the “survival of tumor-bearing mice” value is “prominent effect on tumor bearing mice survival rate”. The tolerability to treatment result in the series with A172 GBM cells was “good tolerability”. Also, in the series with A172 GBM cells (setting [4]), the “body weight gain of tumor-bearing mice” value is recorded as “no weight loss” and the “survival of tumor-bearing mice” value is given as “superior activity compared to TMZ in overall survival”.

For `CN(C)/N=N/c1[nH]cnc1C(N)=O` [DTIC, dacarbazine, reference compound], the half-life in the series “physchem” (pH 4.6) is 306 min; in “physchem” (pH 7.4) it was 612 min.

For `Cn1nnc2c(C(N)=O)ncn2c1=O` [TMZ, Temozolomide, reference compound], the plasma half-life in series [3] is 1.8 h. In the series on A172 GBM cells, the “brain structure in brain sections” value was “both lateral and third ventricles were significantly enlarged”; the “tumor area, tumor distribution and invasion in brain sections” value is listed as “noticeable reduction”; the “body weight gain of tumor-bearing mice” value is listed as “Significant body weight gain reduction”; the tolerability to treatment entry is “relatively toxic and poorly tolerable”.

As to `O=C(O)C1CCCNC1` (centres unmarked) [nipecotic acid], the BBB permeability entry in series [1] is “did not show permeability”.

For the compound `NCCCC(=O)O` [γ-aminobutyric acid], the BBB permeability result in series [1] is “did not show permeability”.

N-Me-Phe-(N-Me-Phe)3-CONH2: the BBB permeability entry in series [1] was “High BBB-permeability”.
